In brackets after ≈: the same amount, converted by molar mass. Read-outs that look alike come from different tables or passages of the source.
Assays:
B. cereus ATCC10987 [1] = test: microbe, parasite or virus in culture; format: cell-based, Bacillus cereus; details: for MIC: Bacillus cereus, ATCC10987, 20 h, read-out: Minimal Inhibition Concentration (MIC) B. cereus ATCC10987
B. cereus ATCC14579 = test: microbe, parasite or virus in culture; format: cell-based, Bacillus cereus; details: for MIC: Bacillus cereus, ATCC14579, 20 h, read-out: Minimal Inhibition Concentration (MIC) B. cereus ATCC14579
E. faecalis LMG08222 = test: microbe, parasite or virus in culture; format: cell-based, Enterococcus faecalis
E. faecalis LMG16216 = test: microbe, parasite or virus in culture; format: cell-based, Enterococcus faecalis
E. faecalis V583 = test: microbe, parasite or virus in culture; format: cell-based, Enterococcus faecalis; details: for MIC: Enterococcus faecalis, V583, 20 h, read-out: Minimal Inhibition Concentration (MIC) E. faecalis V583
E. faecium LMG11423 = test: microbe, parasite or virus in culture; format: cell-based
E. faecium LMG16003 = test: microbe, parasite or virus in culture; format: cell-based
S.aureus LMG8224 = test: microbe, parasite or virus in culture; format: cell-based, Staphylococcus aureus
S.aureus LMG10147 = test: microbe, parasite or virus in culture; format: cell-based, Staphylococcus aureus; details: for MIC: Staphylococcus aureus, LMG10147, 20 h, read-out: Minimal Inhibition Concentration (MIC) S.aureus LMG10147
S.aureus LMG15975 = test: microbe, parasite or virus in culture; format: cell-based, Staphylococcus aureus
C. beijerinckii B504 = test: MIC test, anaerobes; format: cell-based
Protocol: (§1) The resveratrol derivatives were serially diluted in cMHB (BD Difco) in 96-well microplates. Plates were then inoculated with the indicator bacteria at a final concentration of 5 × 10^5 CFU/mL and incubated at 37 °C for 20 h. In the case of the anaerobic bacteria (Clostridium and Clostridioides), the test was performed following the recommendation of CLSI for anaerobes[77] but using RCM medium instead of cMHB. The cultures were cultivated inside an anaerobic chamber at 37 °C for 24 h. All the tests were performed in triplicate.

C. ihumii AP5 = test: MIC test, anaerobes; format: cell-based; details: 24 h, read-out: Minimal Inhibition Concentration (MIC) C. ihumii AP5
Protocol: as §1

C. botulinum CECT551 = test: microbe, parasite or virus in culture; format: cell-based
C. difficile CECT531 = test: microbe, parasite or virus in culture; format: cell-based, Clostridioides difficile; details: for MIC: Clostridioides difficile, CECT531, 24 h, read-out: Minimal Inhibition Concentration (MIC) C. difficile CECT531
C. perfringens CECT376 = test: microbe, parasite or virus in culture; format: cell-based; details: for MIC: Clostridium perfringens, CECT376, 24 h, read-out: Minimal Inhibition Concentration (MIC) C. perfringens CECT376
C. tetani CECT4629 = test: microbe, parasite or virus in culture; format: cell-based
[2] = test system: B. cereus ATCC 10987, E. faecalis V583, E. faecium LMG 16003, and S. aureus LMG 8224; format: cell-based; details: 2-fold the MIC, 24 h, cMHB
B. cereus ATCC10987 [3] = test: Effect of the compounds on actively growing bacteria (lysis, OD600); format: cell-based, Bacillus cereus
[4] = test system: E. faecium LMG16003 and S. aureus LMG82224; test: Combination with 24 traditional antibiotics, overall outcome; format: cell-based
E. coli LMG8224 = test: Outer membrane permeabilization test (MIC with or without L-11 peptide); details: for MIC (μM) L-11 + 4 μM: presence of 4 μM L-11 outer-membrane-perturbing peptide; for MIC: Escherichia coli, LMG8224, read-out: MIC (μM) L-11 + 0 μM
B. cereus ATTC10987 = test: Membrane integrity assay (propidium iodide uptake); format: cell-based, Bacillus cereus; details: 2×, 1×, and 0.5× the MIC
Protocol: B. cereus ATTC10987 was grown in LB with shaking at 37 °C for 18 h. After that, the cells were centrifuged and washed in 5 mM HEPES buffer (pH 7.4) plus 5 mM glucose (G-HEPES buffer) three times, adjusted to an OD600 of 0.5 in the same buffer plus 10 μg/mL of propidium iodide (Sigma-Aldrich), and incubated for 10 min at 37 °C. This is a nonfluorescent dye impermeable to the bacterial membranes, but, if the membranes are disturbed, the dye can enter by binding the DNA, providing a strong fluorescent signal. […] The experiment was performed in triplicate.

[5] = test system: B. cereus ATCC10987 respiratory chain; test: Activity of the respiratory chain (resazurin reduction); format: cell-based, Bacillus cereus; details: dose-related, 125 min
Protocol: The effect of the resveratrol derivatives on the B. cereus ATCC10987 respiratory chain was measured by the reduction of resazurin to the fluorescent resorufin. The bacteria were cultured in LB medium at 37 °C to an OD600 of 1. Then, the cells were washed three times in cMHB and resuspended in this medium at a final OD600 of 0.2. Resazurin at 100 μg/mL was added to the cells that were distributed in a 96-well plate. […] No treated cells and just MHB medium with resazurin were used as negative controls. All the tests were performed in triplicate.

S. aureus = test system: S. aureus; design: method as in PMID 29906565; details: cited from earlier work
in vitro = details: human
B. cereus ATCC10987 [6] = test: Membrane potential assay DiSC3(5); details: 2×, 1×, and 0.5× the MIC
B. cereus ATCC10987 [7] = test: Intracellular ATP level quantification (BacTiter-Glo); details: 32 μM of the compounds (100 μM for CCCP), 30, 60, and 120 min, 37 °C
[8] = test system: panel of aerobic and anaerobic Gram-positive bacteria; test: organism not typed; format: cell-based
Enterococcus strains = test: Time killing kinetic and minimal bactericidal concentration, Enterococcus; format: cell-based
[9] = Table 1, 128 to 2 μM, RCM medium, anaerobic, 24 h

**Q.** What does the source list for “4′-tert-butyldimethylsilyl resveratrol [compound 17]”?
**A.** Minimal Inhibition Concentration (MIC) B. cereus ATCC10987 (B. cereus ATCC10987 [1]): 8 ± 0 µM; Minimal Inhibition Concentration (MIC) B. cereus ATCC14579 (B. cereus ATCC14579): 4 ± 0 µM; Minimal Inhibition Concentration (MIC) E. faecalis LMG08222 (E. faecalis LMG08222): 6.6 ± 1.3 µM; Minimal Inhibition Concentration (MIC) E. faecalis LMG16216 (E. faecalis LMG16216): 8 ± 0 µM; Minimal Inhibition Concentration (MIC) E. faecalis V583 (E. faecalis V583): 8 ± 0 µM; Minimal Inhibition Concentration (MIC) E. faecium LMG11423 (E. faecium LMG11423): 8 ± 0 µM; Minimal Inhibition Concentration (MIC) E. faecium LMG16003 (E. faecium LMG16003): 8 ± 0 µM; Minimal Inhibition Concentration (MIC) S.aureus LMG8224 (S.aureus LMG8224): 8 ± 0 µM; Minimal Inhibition Concentration (MIC) S.aureus LMG10147 (S.aureus LMG10147): 8 ± 0 µM; Minimal Inhibition Concentration (MIC) S.aureus LMG15975 (S.aureus LMG15975): 8 ± 0 µM; Minimal Inhibition Concentration (MIC) C. beijerinckii B504 (C. beijerinckii B504; [9]): 10.6 ± 2.6 µM; MIC (C. ihumii AP5; Table 1, 128 to 2 μM, RCM medium, anaerobic): 16 µM; Minimal Inhibition Concentration (MIC) C. botulinum CECT551 (C. botulinum CECT551; [9]): 13.3 ± 2.6 µM; Minimal Inhibition Concentration (MIC) C. difficile CECT531 (C. difficile CECT531): 21.3 ± 5.3 µM; Minimal Inhibition Concentration (MIC) C. perfringens CECT376 (C. perfringens CECT376): 13.3 ± 2.6 µM; Minimal Inhibition Concentration (MIC) C. tetani CECT4629 (C. tetani CECT4629; [9]): 5.3 ± 1.3 µM; bactericidal/bacteriostatic effect [2]: bactericidal; effect on actively growing cells (B. cereus ATCC10987 [3]; at 2× the MIC): bactericidal; effect on actively growing cells (B. cereus ATCC10987 [3]; at the MIC concentration): bacteriostatic; combined effect with traditional antibiotics [4]: an additive effect was mainly observed; IC50 (MRC5 cells): 15.5 ± 1.3 µM; MIC (μM) L-11 + 0 μM (E. coli LMG8224; absence of L-11 outer-membrane-perturbing peptide): >128 µM; MIC (μM) L-11 + 4 μM (E. coli LMG8224): 13.3 ± 2.6 µM

**Q.** For `Oc1ccc(/C=C/c2cc(O)cc(O)c2)cc1` [compound 1, Resveratrol], which “membrane permeabilization (propidium iodide uptake)” value (B. cereus ATTC10987) is on record?
**A.** did not induce any effect on membrane permeability

**Q.** What about the “effect on the respiratory chain (reduction of resazurin)” value [5] of the same compound?
**A.** No effect

**Q.** What about the “concentration 0.5× the MIC at which additive effects with aminoglycosides were obtained” value (S. aureus) of the same compound?
**A.** about 560 μM

**Q.** And the IC50 at 72 h (in vitro)?
**A.** 56.6 ± 3.2 µM

**Q.** And the “membrane potential change (DiSC3(5))” value (B. cereus ATCC10987 [6])?
**A.** did not induce any membrane potential change

**Q.** And the “intracellular ATP levels” value (B. cereus ATCC10987 [7])?
**A.** did not statistically affect the ATP levels

**Q.** For `CCCCOc1cc(/C=C/c2ccc(OS(=O)(=O)O)cc2)cc(OS(=O)(=O)O)c1` [compound 15, 3-butyl-4′,5-disulfate resveratrol], which MIC (B. cereus ATCC10987 [1]) is on record?
**A.** 8 µM (≈ 3.56 µg/mL)

**Q.** And the MIC (B. cereus ATCC14579)?
**A.** 6.6 ± 1.3 µM (≈ 2.93 µg/mL)

**Q.** What about the MIC (E. faecalis V583) of the same compound?
**A.** 26.6 ± 5.3 µM (≈ 11.8 µg/mL)

**Q.** What about the MIC (S.aureus LMG10147) of the same compound?
**A.** 8 µM (≈ 3.56 µg/mL)

**Q.** And the MIC (C. difficile CECT531)?
**A.** 64 µM (≈ 28.4 µg/mL)

**Q.** What about the MIC (C. perfringens CECT376) of the same compound?
**A.** 26.6 ± 5.3 µM (≈ 11.8 µg/mL)

**Q.** What about the “antibacterial activity against the Gram-positive panel” value [8] of the same compound?
**A.** active against all Gram-positive bacterial strains examined

**Q.** What about the bactericidal/bacteriostatic effect (Enterococcus strains; Enterococcus strains, 2-fold the MIC, 24 h, minimal bactericidal concentration test) of the same compound?
**A.** bacteriostatic

**Q.** What about the MBC (Enterococcus strains; Enterococcus, read-out: minimal bactericidal concentration (bacteria grew after the treatment)) of the same compound?
**A.** > 128 µM

**Q.** What about the “effect on actively growing cells” value (B. cereus ATCC10987 [3]; at 2× the MIC) of the same compound?
**A.** bactericidal

**Q.** What about the “effect on actively growing cells” value (B. cereus ATCC10987 [3]; at the MIC concentration) of the same compound?
**A.** bacteriostatic

**Q.** What about the “combined effect with traditional antibiotics” value [4] of the same compound?
**A.** strong synergistic effects

**Q.** And the IC50 (in vitro)?
**A.** 24.9 ± 4 µM

**Q.** And the MIC (E. coli LMG8224)?
**A.** > 128 µM

**Q.** Which results are given for `CC(C)[Si](Oc1cc(O)cc(/C=C/c2ccc(O)cc2)c1)(C(C)C)C(C)C` [compound 32]?
**A.** MIC (B. cereus ATCC10987 [1]): 8 µM (≈ 3.08 µg/mL); MIC (B. cereus ATCC14579): 8 µM (≈ 3.08 µg/mL); MIC (E. faecalis LMG08222; Enterococcus faecalis, LMG08222, 20 h, read-out: Minimal Inhibition Concentration (MIC) E. faecalis LMG08222): 4 µM (≈ 1.54 µg/mL); MIC (E. faecalis LMG16216; Enterococcus faecalis, LMG16216, 20 h, read-out: Minimal Inhibition Concentration (MIC) E. faecalis LMG16216): 4 µM (≈ 1.54 µg/mL); MIC (E. faecalis V583): 8 µM (≈ 3.08 µg/mL); MIC (E. faecium LMG11423; Enterococcus faecium, LMG11423, 20 h, read-out: Minimal Inhibition Concentration (MIC) E. faecium LMG11423): 4 µM (≈ 1.54 µg/mL); MIC (E. faecium LMG16003; Enterococcus faecium, LMG16003, 20 h, read-out: Minimal Inhibition Concentration (MIC) E. faecium LMG16003): 4 µM (≈ 1.54 µg/mL); MIC (S.aureus LMG8224; Staphylococcus aureus, LMG8224, 20 h, read-out: Minimal Inhibition Concentration (MIC) S.aureus LMG8224): 8 µM (≈ 3.08 µg/mL); MIC (S.aureus LMG10147): 8 µM (≈ 3.08 µg/mL); MIC (S.aureus LMG15975; Staphylococcus aureus, LMG15975, 20 h, read-out: Minimal Inhibition Concentration (MIC) S.aureus LMG15975): 8 µM (≈ 3.08 µg/mL); MIC (C. beijerinckii B504; Clostridium beijerinckii, B504, 24 h, read-out: Minimal Inhibition Concentration (MIC) C. beijerinckii B504): 10.7 ± 2.6 µM (≈ 4.12 µg/mL); MIC (C. ihumii AP5): 16 µM (≈ 6.15 µg/mL); MIC (C. botulinum CECT551; Clostridium botulinum, CECT551, 24 h, read-out: Minimal Inhibition Concentration (MIC) C. botulinum CECT551): 8 µM (≈ 3.08 µg/mL); MIC (C. difficile CECT531): 16 µM (≈ 6.15 µg/mL); MIC (C. perfringens CECT376): 16 µM (≈ 6.15 µg/mL); MIC (C. tetani CECT4629; Clostridium tetani, CECT4629, 24 h, read-out: Minimal Inhibition Concentration (MIC) C. tetani CECT4629): 5.3 ± 1.3 µM (≈ 2.04 µg/mL); bactericidal/bacteriostatic effect [2]: bactericidal; lysis of actively growing cells (B. cereus ATCC10987 [3]; 2×, 1×, and 0.5× the MIC added at mid exponential phase): most effective derivatives lysing the cells; effect on the respiratory chain (reduction of resazurin) [5]: comparable to or even higher than that of the proton ionophore decoupler of the electron transport chain CCCP; IC50 (in vitro): 1.8 ± 0.1 µM; intracellular ATP levels (B. cereus ATCC10987 [7]): reduced dramatically the ATP levels; MIC (E. coli LMG8224): > 128 µM; MIC (μM) L-11 + 4 μM (E. coli LMG8224): 8 ± 0 µM

Source: PMC9237828, “Chemically Tuning Resveratrol for the Effective Killing of Gram-Positive Pathogens” (Journal of Natural Products, 2022)
